Source: ChEMBL document CHEMBL1201862, “PubChem BioAssay data set” (2004)
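In this assay, cells in 96-well plates receive the compound at five concentrations for 48 hours. Endpoints are linearly interpolated between the surrounding concentrations. Here, GI50 denotes the concentration required for 50% inhibition of growth.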 Calls of active or inactive are those of the source. Rule as the data show it: active = GI50 up to about 1.1 µM and inactive = higher.

Experiments:
Test in all cases: NCI anticancer screen, dose series, 48 h
786-0 = system: 786-0
A498 = system: A498
A549 = system: A549
ACHN = system: ACHN
BT-549 = system: BT-549
CAKI-1 = system: CAKI-1
CCRF-CEM = system: CCRF-CEM
COLO 205 = system: COLO 205
DU-145 = system: DU-145
EKVX = system: EKVX
HCC 2998 = system: HCC 2998
HCT-116 = system: HCT-116
HCT-15 = system: HCT-15
HL-60 = system: HL-60
HOP-62 = system: HOP-62
HT-29 = system: HT-29
Hs-578T = system: Hs-578T
IGROV-1 = system: IGROV-1
K562 = system: K562
KM12 = system: KM12
LOX IMVI = system: LOX IMVI
M14 = system: M14
MCF7 = system: MCF7
MDA-MB-231 = system: MDA-MB-231
MDA-MB-435 = system: MDA-MB-435
MDA-N = system: MDA-N
MOLT-4 = system: MOLT-4
Malme-3M = system: Malme-3M
NCI-H226 = system: NCI-H226
NCI-H23 = system: NCI-H23
NCI-H460 = system: NCI-H460
NCI-H522 = system: NCI-H522
NCI/ADR-RES = system: NCI/ADR-RES
OVCAR-3 = system: OVCAR-3
OVCAR-4 = system: OVCAR-4
OVCAR-5 = system: OVCAR-5
OVCAR-8 = system: OVCAR-8
PC-3 = system: PC-3
RPMI-8226 = system: RPMI-8226
RXF 393 = system: RXF 393
SF-268 = system: SF-268
SF-295 = system: SF-295
SF-539 = system: SF-539
SK-MEL-28 = system: SK-MEL-28
SK-MEL-2 = system: SK-MEL-2
SK-MEL-5 = system: SK-MEL-5
SK-OV-3 = system: SK-OV-3
SN12C = system: SN12C
SNB-19 = system: SNB-19
SNB-75 = system: SNB-75
SR = system: SR
SW-620 = system: SW-620
T47D = system: T47D
TK-10 = system: TK-10
U-251 = system: U-251
UACC-257 = system: UACC-257
UACC-62 = system: UACC-62
UO-31 = system: UO-31
HOP-92 = system: HOP-92

## O=C(O)CCn1cnc2c(S)ncnc21
786-0
  GI50: > 100 µM (inactive)
A498
  GI50: > 100 µM (inactive)
A549
  GI50: > 100 µM (inactive)
ACHN
  GI50: > 100 µM (inactive)
BT-549
  GI50: > 100 µM (inactive)
CAKI-1
  GI50: > 100 µM (inactive)
CCRF-CEM
  GI50: > 100 µM (inactive)
COLO 205
  GI50: > 100 µM (inactive)
DU-145
  GI50: > 100 µM (inactive)
EKVX
  GI50: > 100 µM (inactive)
HCC 2998
  GI50: > 100 µM (inactive)
HCT-116
  GI50: > 100 µM (inactive)
HCT-15
  GI50: > 100 µM
HL-60
  GI50: > 100 µM (inactive)
HOP-62
  GI50: > 100 µM (inactive)
HT-29
  GI50: > 100 µM (inactive)
Hs-578T
  GI50: > 100 µM (inactive)
IGROV-1
  GI50: > 100 µM (inactive)
K562
  GI50: > 100 µM (inactive)
KM12
  GI50: > 100 µM (inactive)
LOX IMVI
  GI50: > 100 µM (inactive)
M14
  GI50: > 100 µM (inactive)
MCF7
  GI50: > 100 µM (inactive)
MDA-MB-231
  GI50: > 100 µM (inactive)
MDA-MB-435
  GI50: > 100 µM (inactive)
MDA-N
  GI50: > 100 µM (inactive)
MOLT-4
  GI50: > 100 µM (inactive)
Malme-3M
  GI50: > 100 µM (inactive)
NCI-H226
  GI50: > 100 µM (inactive)
NCI-H23
  GI50: > 100 µM (inactive)
NCI-H460
  GI50: > 100 µM (inactive)
NCI-H522
  GI50: > 100 µM (inactive)
NCI/ADR-RES
  GI50: > 100 µM (inactive)
OVCAR-3
  GI50: > 100 µM (inactive)
OVCAR-4
  GI50: > 100 µM (inactive)
OVCAR-5
  GI50: > 100 µM (inactive)
OVCAR-8
  GI50: > 100 µM (inactive)
PC-3
  GI50: > 100 µM (inactive)
RPMI-8226
  GI50: > 100 µM (inactive)
RXF 393
  GI50: > 100 µM (inactive)
SF-268
  GI50: > 100 µM (inactive)
SF-295
  GI50: > 100 µM (inactive)
SF-539
  GI50: > 100 µM (inactive)
SK-MEL-28
  GI50: > 100 µM (inactive)
SK-MEL-2
  GI50: > 100 µM (inactive)
SK-MEL-5
  GI50: > 100 µM (inactive)
SK-OV-3
  GI50: > 100 µM (inactive)
SN12C
  GI50: > 100 µM (inactive)
SNB-19
  GI50: > 100 µM (inactive)
SNB-75
  GI50: > 100 µM (inactive)
SR
  GI50: > 100 µM (inactive)
SW-620
  GI50: > 100 µM (inactive)
T47D
  GI50: > 100 µM (inactive)
TK-10
  GI50: > 100 µM (inactive)
U-251
  GI50: > 100 µM (inactive)
UACC-257
  GI50: > 100 µM (inactive)
UACC-62
  GI50: > 100 µM (inactive)
UO-31
  GI50: > 100 µM (inactive)

## S=C1Nc2cnc3ccccc3c2SC1c1ccccc1 (centres undefined)
786-0
  GI50: > 100 µM (inactive)
A549
  GI50: > 100 µM (inactive)
ACHN
  GI50: > 100 µM (inactive)
BT-549
  GI50: > 100 µM (inactive)
CAKI-1
  GI50: > 100 µM (inactive)
COLO 205
  GI50: > 100 µM (inactive)
DU-145
  GI50: > 100 µM (inactive)
EKVX
  GI50: > 100 µM (inactive)
HCT-116
  GI50: > 100 µM (inactive)
HCT-15
  GI50: > 100 µM
HL-60
  GI50: > 100 µM (inactive)
HOP-62
  GI50: 42.9 µM (inactive)
HT-29
  GI50: > 100 µM (inactive)
Hs-578T
  GI50: 49.9 µM (inactive)
IGROV-1
  GI50: > 100 µM (inactive)
K562
  GI50: > 100 µM (inactive)
KM12
  GI50: > 100 µM (inactive)
LOX IMVI
  GI50: 97.5 µM (inactive)
M14
  GI50: > 100 µM (inactive)
MCF7
  GI50: > 100 µM (inactive)
MDA-MB-231
  GI50: > 100 µM (inactive)
MDA-MB-435
  GI50: 83.4 µM (inactive)
MDA-N
  GI50: > 100 µM (inactive)
MOLT-4
  GI50: > 100 µM (inactive)
Malme-3M
  GI50: > 100 µM (inactive)
NCI-H226
  GI50: > 100 µM (inactive)
NCI-H23
  GI50: 96.4 µM (inactive)
NCI-H460
  GI50: > 100 µM (inactive)
NCI-H522
  GI50: > 100 µM (inactive)
NCI/ADR-RES
  GI50: > 100 µM (inactive)
OVCAR-3
  GI50: > 100 µM (inactive)
OVCAR-4
  GI50: > 100 µM (inactive)
OVCAR-5
  GI50: > 100 µM (inactive)
OVCAR-8
  GI50: > 100 µM (inactive)
PC-3
  GI50: > 100 µM (inactive)
RPMI-8226
  GI50: > 100 µM (inactive)
RXF 393
  GI50: 13 µM (inactive)
SF-268
  GI50: > 100 µM (inactive)
SF-295
  GI50: 61.7 µM (inactive)
SK-MEL-28
  GI50: 92.3 µM (inactive)
SK-MEL-5
  GI50: > 100 µM (inactive)
SK-OV-3
  GI50: 72.8 µM (inactive)
SN12C
  GI50: > 100 µM (inactive)
SNB-19
  GI50: > 100 µM (inactive)
SNB-75
  GI50: 28.4 µM (inactive)
SR
  GI50: > 100 µM (inactive)
T47D
  GI50: > 100 µM (inactive)
TK-10
  GI50: > 100 µM (inactive)
U-251
  GI50: > 100 µM (inactive)
UACC-257
  GI50: > 100 µM (inactive)
UACC-62
  GI50: > 100 µM (inactive)
UO-31
  GI50: > 100 µM (inactive)

## C/C1=C/C[C@@H](/C(C)=C/c2csc(C)n2)OC(=O)C[C@H](O)C(C)(C)C(=O)[C@H](C)[C@@H](O)[C@@H](C)CCC1 [EPOTHILONE D]
786-0
  GI50: < 0.0001 µM (active)
A549
  GI50: < 0.0001 µM (active)
ACHN
  GI50: < 0.0001 µM (active)
BT-549
  GI50: < 0.0001 µM (active)
CAKI-1
  GI50: < 0.0001 µM (active)
CCRF-CEM
  GI50: < 0.0001 µM (active)
COLO 205
  GI50: < 0.0001 µM (active)
DU-145
  GI50: < 0.0001 µM (active)
EKVX
  GI50: < 0.0001 µM (active)
HCC 2998
  GI50: < 0.0001 µM (active)
HCT-116
  GI50: < 0.0001 µM (active)
HCT-15
  GI50: < 0.0001 µM
HOP-62
  GI50: < 0.0001 µM (active)
HOP-92
  GI50: 0.141 µM (active)
HT-29
  GI50: < 0.0001 µM (active)
Hs-578T
  GI50: < 0.0001 µM (active)
IGROV-1
  GI50: < 0.0001 µM (active)
K562
  GI50: < 0.0001 µM (active)
KM12
  GI50: < 0.0001 µM (active)
LOX IMVI
  GI50: < 0.0001 µM (active)
M14
  GI50: < 0.0001 µM (active)
MCF7
  GI50: < 0.0001 µM (active)
MDA-MB-231
  GI50: < 0.0001 µM (active)
MDA-MB-435
  GI50: < 0.0001 µM (active)
MDA-N
  GI50: < 0.0001 µM (active)
MOLT-4
  GI50: < 0.0001 µM (active)
NCI-H226
  GI50: < 0.0001 µM (active)
NCI-H23
  GI50: < 0.0001 µM (active)
NCI-H460
  GI50: < 0.0001 µM (active)
NCI-H522
  GI50: < 0.0001 µM (active)
NCI/ADR-RES
  GI50: < 0.0001 µM (active)
OVCAR-3
  GI50: < 0.0001 µM (active)
OVCAR-4
  GI50: 0.137 µM (active)
OVCAR-5
  GI50: < 0.0001 µM (active)
OVCAR-8
  GI50: < 0.0001 µM (active)
PC-3
  GI50: < 0.0001 µM (active)
RPMI-8226
  GI50: < 0.0001 µM (active)
RXF 393
  GI50: < 0.0001 µM (active)
SF-268
  GI50: < 0.0001 µM (active)
SF-295
  GI50: < 0.0001 µM (active)
SF-539
  GI50: < 0.0001 µM (active)
SK-MEL-2
  GI50: < 0.0001 µM (active)
SK-MEL-5
  GI50: < 0.0001 µM (active)
SK-OV-3
  GI50: < 0.0001 µM (active)
SN12C
  GI50: < 0.0001 µM (active)
SNB-19
  GI50: < 0.0001 µM (active)
SNB-75
  GI50: < 0.0001 µM (active)
SR
  GI50: < 0.0001 µM (active)
SW-620
  GI50: < 0.0001 µM (active)
T47D
  GI50: < 0.0001 µM (active)
TK-10
  GI50: 0.000192 µM (active)
U-251
  GI50: < 0.0001 µM (active)
UACC-62
  GI50: < 0.0001 µM (active)
UO-31
  GI50: < 0.0001 µM (active)
